Drawing on ChEMBL document CHEMBL1149406, “Isolation and cholinesterase-inhibition studies of sterols from Haloxylon recurvum” (Bioorg Med Chem Lett, 2006), this text covers Ki and IC50 for 9 molecules.

For test [1], the target named is Butyrylcholinesterase (Equus caballus, UniProt Q9N1N9). The test is described as follows: Inhibitory activity against BuChE from horse serum.
Test [2] deals with Acetylcholinesterase (Electrophorus electricus, UniProt O42275). The test is described as follows: Inhibitory activity against AChE from electric eel.
Chain of Acetylcholinesterase (O42275 whole entry): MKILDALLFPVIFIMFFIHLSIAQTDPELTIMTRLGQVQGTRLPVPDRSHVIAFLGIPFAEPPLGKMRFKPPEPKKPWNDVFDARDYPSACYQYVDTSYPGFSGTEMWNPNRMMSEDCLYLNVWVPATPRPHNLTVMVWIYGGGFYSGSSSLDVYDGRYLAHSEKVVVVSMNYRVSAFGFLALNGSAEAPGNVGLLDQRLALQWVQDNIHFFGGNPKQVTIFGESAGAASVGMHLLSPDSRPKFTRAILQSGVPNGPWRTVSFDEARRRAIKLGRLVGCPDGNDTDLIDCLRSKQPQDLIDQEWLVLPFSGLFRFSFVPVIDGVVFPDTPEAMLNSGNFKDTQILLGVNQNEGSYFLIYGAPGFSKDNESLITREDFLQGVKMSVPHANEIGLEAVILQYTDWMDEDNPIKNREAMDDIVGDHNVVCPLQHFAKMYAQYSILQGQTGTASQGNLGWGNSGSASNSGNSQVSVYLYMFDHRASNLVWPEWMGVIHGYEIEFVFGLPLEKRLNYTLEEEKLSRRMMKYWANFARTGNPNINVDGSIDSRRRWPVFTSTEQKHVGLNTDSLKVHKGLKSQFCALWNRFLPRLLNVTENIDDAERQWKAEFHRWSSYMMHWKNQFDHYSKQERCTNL

Chain of Butyrylcholinesterase (Q9N1N9 whole entry): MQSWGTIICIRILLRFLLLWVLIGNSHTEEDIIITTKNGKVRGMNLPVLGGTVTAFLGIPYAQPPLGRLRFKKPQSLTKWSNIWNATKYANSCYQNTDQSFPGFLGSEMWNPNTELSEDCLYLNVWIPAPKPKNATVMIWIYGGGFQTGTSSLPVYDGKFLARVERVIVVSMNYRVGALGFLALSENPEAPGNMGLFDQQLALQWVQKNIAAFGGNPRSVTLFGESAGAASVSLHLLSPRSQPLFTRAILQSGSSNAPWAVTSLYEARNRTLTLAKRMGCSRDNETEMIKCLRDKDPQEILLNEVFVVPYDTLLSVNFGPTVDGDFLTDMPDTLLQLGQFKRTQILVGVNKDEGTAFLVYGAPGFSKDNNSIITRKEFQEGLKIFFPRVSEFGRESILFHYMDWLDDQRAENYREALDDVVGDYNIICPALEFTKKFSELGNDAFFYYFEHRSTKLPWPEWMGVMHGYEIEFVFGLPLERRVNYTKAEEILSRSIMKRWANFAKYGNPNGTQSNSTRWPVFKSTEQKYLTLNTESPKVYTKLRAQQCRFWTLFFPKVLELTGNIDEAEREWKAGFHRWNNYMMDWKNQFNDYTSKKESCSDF

Regarding `CCC(CC[C@@H](C)[C@H]1CC[C@H]2[C@@H]3C=CC4(O)C[C@@H](O)CC[C@]4(C)[C@H]3CC[C@]12C)C(C)C` (some centres undefined), the Ki in test [1] was determined as 4.2 µM; in test [2] it was 4 µM.
Turning to `CCC(CC[C@@H](C)[C@H]1CC[C@H]2C3=CC(O)C4(O)C[C@@H](O)CC[C@]4(C)[C@H]3CC[C@]12C)C(C)C` (some centres undefined), in test [1], the IC50 turned out to be 2 µM and the Ki is 2.5 µM. In test [2], the 50% inhibitory concentration (IC50) was 13.7 µM and the affinity corresponds to a Ki of 12.6 µM.
For `CC[C@H](/C=C/[C@@H](C)[C@H]1CC[C@H]2[C@@H]3C=CC4C[C@@H](O)CC[C@]4(C)C3=CC[C@]12C)C(C)C` (some centres undefined) the same measures were 4.5 µM, 4.6 µM, 19.2 µM and 20.6 µM.
For `CC[C@H](/C=C/[C@@H](C)[C@H]1CC[C@@H]2[C@]1(C)CC=C1[C@]23C=C[C@]2(C[C@@H](O)CC[C@]12C)OO3)C(C)C`, in that order: 6.9 µM, 5 µM, 26.4 µM and 25.5 µM.
For `CC[C@H](C[C@@H](O)[C@@H](C)[C@H]1CC[C@H]2[C@@H]3C[C@@H](O)[C@@]4(O)C[C@@H](O)C[C@H](O)[C@]4(C)[C@H]3CC[C@]12C)C(C)C`, in that order: 2.5 µM, 2.2 µM, 17.2 µM and 17 µM.
In test [1], `CC[C@H](C[C@@H](O)[C@@H](C)[C@H]1CCC2C3CC=C4C[C@@H](O)C[C@H](O)[C@]4(C)C3CC[C@@]21C)C(C)C` (some centres undefined) [HALOXYSTEROL A] had an IC50 of 4.7 µM and a Ki of 4.5 µM. In test [2], this molecule showed a half-inhibitory concentration (IC50) of 8.3 µM and a Ki of 7.6 µM.
For `CC[C@H](C[C@@H](O)[C@@H](C)[C@H]1CCC2C3C=CC4=C[C@@H](O)C[C@H](O)[C@]4(C)C3CC[C@@]21C)C(C)C` (some centres undefined) [HALOXYSTEROL B], in that order: 2.3 µM, 2.5 µM, 0.89 µM and 0.85 µM.
For `CC[C@H](C[C@@H](O)[C@@H](C)[C@H]1CCC2C3CCC4=CC(=O)CC[C@]4(C)C3=CC[C@@]21C)C(C)C` (some centres undefined) [HALOXYSTEROL C] the same measures were 17.8 µM, 18 µM, 1 µM and 1.1 µM.
For `CC[C@H](CC[C@@H](C)[C@H]1CC[C@H]2[C@@H]3CCC4=C[C@@H](O)CC[C@]4(C)[C@H]3CC[C@]12C)C(C)C` [LAWSARITOL] the same measures were 3.9 µM, 3.7 µM, 15.2 µM and 16.1 µM.
